Several values for one entry are separate records, joined by “and”; a condition that tells them apart may be missing. Identical values can stand only once.
Experiments:
Type in all cases: biochemical
Aspergillus sojae SOX [1] = assay: Substrate specificity of SOX toward low MW thiol compounds, polarographic (oxygen consumption); details: 1 mM test compound, 227 μM oxygen, 50 mM potassium phosphate pH 6.7, 30° C., corrected for auto-oxidation
Method: SOX activity may be ascertained by two methods. The activity may be determined by measuring the oxygen consumed when a suitable substrate, e.g., reduced glutathione, is oxidized enzymatically to the corresponding disulfide. The stoichiometry involved is according to the equations 1 and 2 below, namely, 1/2 oxygen consumed per disulfide formed, when the reaction is carried out in the presence of catalase activity.
The assay employs oxygen electrode techniques and is used with low MW compounds as substrates.
The ability of low MW thiol-containing compounds to serve as substrates for SOX was determined polarographically at 30° C., pH 6.7. […] Protein specificity was determined with proteins in their reductively denatured state. Reductive denaturation is accomplished by submitting the protein to a denaturant e.g., urea and a mercaptan such as beta-mercaptoethanol at pH 8.5. Renaturation is then achieved by incubating the reduced protein with the SOX for a period of time at pH 7.0. The progress of the renaturation can easily be assessed by reaction of the protein with DTNB.
The activity of the SOX preparation may be determined polarographically by measuring the oxygen consumed when a substrate e.g., reduced glutathione (GSH) is oxidized to the corresponding disulfide. The activity may also be determined spectrophotometrically using dithiobisnitrobenzoic acid (DTNB) which specifically reacts with a free sulfhydryl by measuring the absorption at 412 nm (ε=13.6×10^3 M^-1 cm^-1). Therefore, one unit of activity is defined as that amount of enzyme which catalyzes the consumption of 1.0 μmole of oxygen per minute or loss of 2.0 μmoles of free sulfhydryls per minute at 30° C., pH 6.7 using 1 mM GSH as substrate.
The substrate specificity of SOX toward low MW compounds containing a free SH moiety was ascertained by polarographic methodology. The activities were measured relative to glutathione (GSH) at 30° C. in the following assay system: 1 mM test compound, 227 μM molecular oxygen, 50 mM potassium phosphate pH 6.7, and sufficient SOX to yield a linear decrease in oxygen during the first three minutes. The rates were corrected for auto-oxidation.

bovine SOX = assay: Inhibition of bovine SOX; details: 1 mM concentration
Aspergillus sojae SOX [2] = assay: Inhibition of Aspergillus sojae SOX

Question: Which “% of Activity with GSH” value (Aspergillus sojae SOX [1]) does the source give for `N[C@@H](CS)C(=O)O` [L--cysteine, L-Cysteine] here?
Answer: 8.7%

Question: What about the “% of Activity with GSH” value (Aspergillus sojae SOX [1]; listed as L-Cysteine) of the same compound?
Answer: 3-22%

Question: `O=C(O)CN(CCN(CC(=O)O)CC(=O)O)CC(=O)O` [EDTA] was tested. Which “Inhibition of bovine SOX” value (bovine SOX) did it give?
Answer: almost completely

Question: And the “Inhibition of Aspergillus sojae SOX” value (Aspergillus sojae SOX [2]; concentration not printed for this enzyme)?
Answer: not inhibited

Question: Which results are given for `N[C@H](CS)C(=O)O` [D--cysteine, D-cysteine]?
Answer: % of Activity with GSH (Aspergillus sojae SOX [1]): 4.1%; % of Activity with GSH (Aspergillus sojae SOX [1]; listed as D-cysteine): 3-22%

Question: Which results are given for `CCOC(=O)[C@@H](N)CS` [L--cysteine, ethyl ester, L-cysteine ethyl ester]?
Answer: % of Activity with GSH (Aspergillus sojae SOX [1]): 21.8%; % of Activity with GSH (Aspergillus sojae SOX [1]; listed as L-cysteine ethyl ester): 3-22%

Question: What does the source list for `O[C@H](CS)[C@H](O)CS` (racemic) [D,L--dithiothreitol, D,L-dithiothreitol]?
Answer: % of Activity with GSH (Aspergillus sojae SOX [1]): 5.6%; % of Activity with GSH (Aspergillus sojae SOX [1]; listed as D,L-dithiothreitol): 3-22%

Question: How did the “% of Activity with GSH” value (Aspergillus sojae SOX [1]) turn out when `O[C@H](CS)[C@@H](O)CS` [dithioerythreitol, D,L-dithioerythreitol] was run?
Answer: 6.6%

Question: And the “% of Activity with GSH” value (Aspergillus sojae SOX [1]; listed as D,L-dithioerythreitol)?
Answer: 3-22%

Question: `OCCS` [beta-mercaptoethanol] was tested. Which “% of Activity with GSH” value (Aspergillus sojae SOX [1]) did it give?
Answer: 3-22% and 4.2%

Question: How did the “% of Activity with GSH” value (Aspergillus sojae SOX [1]) turn out when `N[C@@H](CCC(=O)N[C@@H](CS)C(=O)NCC(=O)O)C(=O)O` [glutathione, δ-L-glutamyl-L-cysteinyl-glycine] was run?
Answer: 100%

Question: Which “Inhibition of bovine SOX” value (bovine SOX) does the source give for `O=S(=O)([O-])[O-].[Zn+2]` [ZnSO4] here?
Answer: non-inhibitory

Question: What about the “Inhibition of microbial SOX” value (Aspergillus sojae SOX [2]; 1 mM concentration) of the same compound?
Answer: partially inhibited

Question: What does the source list for `CC(=O)N[C@@H](CS)C(=O)O` [N--acetyl-L--cysteine, N-acetyl-L-cysteine]?
Answer: % of Activity with GSH (Aspergillus sojae SOX [1]): 3.0%; % of Activity with GSH (Aspergillus sojae SOX [1]; listed as N-acetyl-L-cysteine): 3-22%

Source: US4632905A, “Microbial sulfhydryl oxidase” (Novo Laboratories, Inc., priority 1985, dated 1986)
